From ChEMBL document CHEMBL1148625, “3-(1,1-dioxo-2H-(1,2,4)-benzothiadiazin-3-yl)-4-hydroxy-2(1H)-quinolinones, potent inhibitors of hepatitis C virus RNA-dependent RNA polymerase” (J Med Chem, 2006)

Target: RNA-directed RNA polymerase (Hepacivirus hominis, UniProt O39930)
Experiment: Inhibitory activity against HCV delta 21 NS5B RNA polymerase by SPA assay
Design: species or system Hepatitis C virus subtype 1b

Sequence of RNA-directed RNA polymerase (O39930 whole entry): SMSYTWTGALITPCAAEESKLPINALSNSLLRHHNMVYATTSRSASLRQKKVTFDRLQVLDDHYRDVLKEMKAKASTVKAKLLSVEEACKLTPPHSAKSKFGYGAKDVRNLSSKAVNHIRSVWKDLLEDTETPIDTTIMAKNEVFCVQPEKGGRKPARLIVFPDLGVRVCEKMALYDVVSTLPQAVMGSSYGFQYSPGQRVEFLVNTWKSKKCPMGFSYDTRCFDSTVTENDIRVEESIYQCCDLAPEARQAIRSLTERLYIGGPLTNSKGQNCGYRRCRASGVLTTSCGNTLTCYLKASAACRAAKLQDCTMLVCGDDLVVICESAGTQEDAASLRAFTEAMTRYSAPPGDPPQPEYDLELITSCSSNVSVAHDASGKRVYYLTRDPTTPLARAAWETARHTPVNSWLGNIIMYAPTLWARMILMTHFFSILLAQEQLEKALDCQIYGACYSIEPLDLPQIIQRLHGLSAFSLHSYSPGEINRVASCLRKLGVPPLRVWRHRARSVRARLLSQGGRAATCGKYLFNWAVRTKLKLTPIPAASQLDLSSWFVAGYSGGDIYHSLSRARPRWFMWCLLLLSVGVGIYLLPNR

| Structure (SMILES) | IC50 [nM] |
| --- | --- |
| O=c1c(C2=NS(=O)(=O)c3ccccc3N2)c(O)c2ccccc2n1CCCC(F)(F)F | 106 |
| CCCCn1c(=O)c(-c2nc3ccccc3[nH]2)c(O)c2ccccc21 | > 10000 |
| NCCCCn1c(=O)c(C2=NS(=O)(=O)c3ccccc3N2)c(O)c2ccccc21 | > 10000 |
| COC(C)CCn1c(=O)c(C2=NS(=O)(=O)c3ccccc3N2)c(O)c2ccccc21 (centres undefined) | 82 |
| CC(C)CCn1c(=O)c(C2=Nc3ccccc3S(=O)(=O)N2)c(O)c2c(Br)cccc21 | 105 |
| CC(C)CCn1c(=O)c(C2=Nc3ccccc3S(=O)(=O)N2)c(O)c2cc(OCC(N)=O)ccc21 | 24 |
| CCOC(=O)c1ccc2c(O)c(C3=Nc4ccccc4S(=O)(=O)N3)c(=O)n(CCC(C)C)c2c1 | > 10000 |
| C#CCCCn1c(=O)c(C2=Nc3ccccc3S(=O)(=O)N2)c(O)c2ccccc21 | 179 |
| Cc1nc(Cn2c(=O)c(C3=Nc4ccccc4S(=O)(=O)N3)c(O)c3ccccc32)cs1 | 304 |
| O=c1c(C2=NS(=O)(=O)c3ccccc3N2)c(O)c2ccccc2n1Cc1ccncc1 | 61 |
| CCOC(=O)n1c(=O)c(C2=NS(=O)(=O)c3ccccc3N2)c(O)c2ccccc21 | 2040 |
| O=c1c(C2=Nc3ccccc3S(=O)(=O)N2)c(O)c2ccccc2n1CCCCO | 1300 |
| CC(C)CCn1c(=O)c(C2=Nc3ccccc3S(=O)(=O)N2)c(O)c2cc(O)ccc21 | 198 |
| CC(C)CCn1c(=O)c(C2=NS(=O)(=O)c3ccccc3N2)c(O)c2cc(C(=O)O)ccc21 | 1040 |
| CSCCn1c(=O)c(C2=NS(=O)(=O)c3ccccc3N2)c(O)c2ccccc21 | 53 |
| CC(C)CCn1c(=O)c(C2=NS(=O)(=O)c3ccccc3N2)c(O)c2cc(OCCCC#N)ccc21 | 4330 |
| CC(C)CCn1c(=O)c(C2=Nc3ccccc3S(=O)(=O)N2)c(O)c2ccc(F)cc21 | 554 |
| CC(C)CCn1c(=O)c(C2=Nc3ccccc3S(=O)(=O)N2)cc2ccccc21 | > 10000 |
| NC(=O)CCCn1c(=O)c(C2=Nc3ccccc3S(=O)(=O)N2)c(O)c2ccccc21 | > 10000 |
| O=c1c(C2=Nc3ccccc3S(=O)(=O)N2)c(O)c2ccccc2n1Cc1ccc([N+](=O)[O-])cc1 | 2440 |
| CC(C)CCn1c(=O)c(C2=NS(=O)(=O)c3ccccc3N2)c(N)c2ccccc21 | > 10000 |
| O=c1c(C2=NS(=O)(=O)c3ccccc3N2)c(O)c2ccccc2n1CCN1CCCC1 | > 10000 |
| O=c1c(C2=NS(=O)(=O)c3ccccc3N2)c(O)c2ccccc2n1Cc1ccccn1 | 2690 |
| CCn1c(=O)c(C2=Nc3ccccc3S(=O)(=O)N2)c(O)c2ccccc21 | 2220 |

| Structure (SMILES) | IC50 [nM] |
| --- | --- |
| N#Cc1ccccc1Cn1c(=O)c(C2=Nc3ccccc3S(=O)(=O)N2)c(O)c2ccccc21 | 780 |
| CC(C)CCn1c(=O)c(C2=Nc3ccccc3S(=O)(=O)N2)c(O)c2cccc([N+](=O)[O-])c21 | > 10000 |
| O=c1c(C2=NS(=O)(=O)c3ccccc3N2)c(O)c2ccccc2n1CC1CCCC1 | 132 |
| Cc1cccc2c1c(O)c(C1=Nc3ccccc3S(=O)(=O)N1)c(=O)n2CCC(C)C | 206 |
| CC(C)(C)CCn1c(=O)c(C2=NS(=O)(=O)c3ccccc3N2)c(O)c2ccccc21 | 21 |
| N#CCCCn1c(=O)c(C2=NS(=O)(=O)c3ccccc3N2)c(O)c2ccccc21 | 172 |
| O=c1c(C2=Nc3ccccc3S(=O)(=O)N2)c(O)c2ccccc2n1CC1CCC1 | 49 |
| CC(C)CCn1c(=O)c(C2=Nc3ccccc3S(=O)(=O)N2)c(O)c2cc(N)ccc21 | 62 |
| CCOC(=O)CCCn1c(=O)c(C2=NS(=O)(=O)c3ccccc3N2)c(O)c2ccccc21 | > 10000 |
| O=S1(=O)N=C(c2c(O)nc3ccccc3c2O)Nc2ccccc21 | > 10000 |
| CC(C)CCn1c(=O)c(C2=NS(=O)(=O)c3ccccc3N2)c(O)c2ccc(/C=C/C(N)=O)cc21 | > 10000 |
| CC(C)CCn1c(=O)c(C2=Nc3ccccc3S(=O)(=O)N2)c(O)c2c(F)cccc21 | 340 |
| COCCOc1ccc2c(c1)c(O)c(C1=NS(=O)(=O)c3ccccc3N1)c(=O)n2CCC(C)C | 1740 |
| C=CCn1c(=O)c(C2=Nc3ccccc3S(=O)(=O)N2)c(O)c2ccccc21 | > 10000 |
| CC(C)CCn1c(=O)c(C2=NS(=O)(=O)c3ccccc3N2C)c(O)c2ccccc21 | > 2430 |
| CC(Br)CCn1c(=O)c(C2=Nc3ccccc3S(=O)(=O)N2)c(O)c2ccccc21 (centres undefined) | 290 |
| O=c1c(C2=Nc3ccccc3S(=O)(=O)N2)c(O)c2ccccc2n1Cc1cccc(Br)c1 | 36 |
| CC(C)CCn1c(=O)c(C2=Nc3ccccc3S(=O)(=O)N2)c(O)c2cc([N+](=O)[O-])ccc21 | 455 |
| CC(C)CCn1c(=O)c(C2=NS(=O)(=O)c3ccccc3N2)c(O)c2cc(NC(=O)c3ccccc3)ccc21 | 4230 |
| CC(C)(C)c1ccc(Cn2c(=O)c(C3=NS(=O)(=O)c4ccccc4N3)c(O)c3ccccc32)cc1 | > 10000 |
| O=c1c(C2=NS(=O)(=O)c3ccccc3N2)c(O)c2ccccc2n1Cc1ccc(Br)cc1 | 95 |
| O=c1c(C2=NS(=O)(=O)c3ccccc3N2)c(O)c2ccccc2n1CCO | > 10000 |
| CC(C)CCn1cc(C2=NS(=O)(=O)c3ccccc3N2)c(=O)c2ccccc21 | > 10000 |
| CC(C)(C)C(=O)Cn1c(=O)c(C2=NS(=O)(=O)c3ccccc3N2)c(O)c2cc(F)ccc21 | 696 |

| Structure (SMILES) | IC50 [nM] |
| --- | --- |
| O=c1c(C2=Nc3ccccc3S(=O)(=O)N2)c(O)c2cccc(F)c2n1CCC1CC1 | 90 |
| O=c1c(C2=Nc3ccccc3S(=O)(=O)N2)c(O)c2ccccc2n1Cc1ccccc1[N+](=O)[O-] | > 10000 |
| CC(=O)Nc1ccc2c(c1)c(O)c(C1=NS(=O)(=O)c3ccccc3N1)c(=O)n2CCC(C)C | > 10000 |
| O=c1c(C2=NS(=O)(=O)c3ccccc3N2)c(O)c2ccccc2n1Cc1cccnc1 | 316 |
| CC(C)CCn1c(=O)c(C2=Nc3ccccc3S(=O)(=O)N2)c(O)c2cc(NCC(=O)O)ccc21 | 21 |
| CC(C)CCn1c(=O)c(C2=NS(=O)(=O)c3ccccc3N2)c(O)c2c(O)cccc21 | 47 |
| CC(C)CCn1c(=O)c(C2=NS(=O)(=O)c3ccccc3N2)c(O)c2c(Cl)cccc21 | 33 |
| CC(C)CCn1c(=O)c(C2=Nc3ccccc3S(=O)(=O)N2)c(O)c2cc(Br)ccc21 | 205 |
| O=c1[nH]c(-c2c(O)c3cc(F)ccc3n(CCC3CC3)c2=O)nc2ccccc12 | > 10000 |
| CS(=O)(=O)CCn1c(=O)c(C2=Nc3ccccc3S(=O)(=O)N2)c(O)c2ccccc21 | 2320 |
| CC(CCn1c(=O)c(C2=NS(=O)(=O)c3ccccc3N2)c(O)c2ccccc21)C(F)(F)F (centres undefined) | 44 |
| N#CCCCCn1c(=O)c(C2=Nc3ccccc3S(=O)(=O)N2)c(O)c2ccccc21 | 750 |
| CCCCCn1c(=O)c(C2=Nc3ccccc3S(=O)(=O)N2)c(O)c2ccccc21 | 80 |
| CC(C)CCn1c(=O)c(C2=Nc3ccccc3S(=O)(=O)N2)c(O)c2cc(OCC#N)ccc21 | 34 |
| O=c1c(C2=NS(=O)(=O)c3ccccc3N2)c(O)c2ccccc2n1CCCc1ccccc1 | > 10000 |
| CC(C)CCn1c(=O)c(C2=NS(=O)(=O)c3ccccc3N2)c(O)c2cc(NC(=O)CC(C)C)ccc21 | 6500 |
| O=c1c(C2=NS(=O)(=O)c3ccccc3N2)c(O)c2ccccc2n1CC1CCOC1 (centres undefined) | 484 |
| CC(C)CCn1c(=O)c(C2=NS(=O)(=O)c3ccccc3N2)c(O)c2cc(I)ccc21 | > 10000 |
| CC(C)CCn1c(=O)c(C2=NS(=O)(=O)c3ccccc3N2)c(O)c2c([N+](=O)[O-])cccc21 | 338 |
| CCOC(=O)CNc1ccc2c(c1)c(O)c(C1=Nc3ccccc3S(=O)(=O)N1)c(=O)n2CCC(C)C | 115 |
| CN(C)CCn1c(=O)c(C2=Nc3ccccc3S(=O)(=O)N2)c(O)c2ccccc21 | > 10000 |
| O=c1c(C2=NS(=O)(=O)c3ccccc3N2)c(O)c2ccccc2n1CCc1ccccc1 | > 10000 |
| CC(C)CCn1c(=O)c(C2=Nc3ccccc3S(=O)(=O)N2)c(O)c2c(-c3ccccc3)cccc21 | 144 |
| C=CCCn1c(=O)c(C2=NS(=O)(=O)c3ccccc3N2)c(O)c2ccccc21 | 90 |

| Structure (SMILES) | IC50 [nM] |
| --- | --- |
| C[S+]([O-])CCn1c(=O)c(C2=NS(=O)(=O)c3ccccc3N2)c(O)c2ccccc21 (centres undefined) | 2540 |
| CC(C)Cn1c(=O)c(C2=Nc3ccccc3S(=O)(=O)N2)c(O)c2ccccc21 | 108 |
| COc1ccc2c(c1)c(O)c(C1=NS(=O)(=O)c3ccccc3N1)c(=O)n2CCC(C)C | 23 |
| O=c1c(C2=NS(=O)(=O)c3ccccc3N2)c(O)c2ccccc2n1CC1CCCO1 (centres undefined) | 528 |
| Cn1c(=O)c(C2=NS(=O)(=O)c3ccccc3N2)c(O)c2ccccc21 | 5590 |
| O=c1c(C2=Nc3ccccc3S(=O)(=O)N2)c(O)c2ccccc2n1Cc1cccc([N+](=O)[O-])c1 | 81 |
| O=C(O)CCCn1c(=O)c(C2=Nc3ccccc3S(=O)(=O)N2)c(O)c2ccccc21 | > 10000 |
| O=c1c(C2=NS(=O)(=O)c3ccccc3N2)c(O)c2ccccc2n1CCc1ccsc1 | > 10000 |
| C/C=C/Cn1c(=O)c(C2=Nc3ccccc3S(=O)(=O)N2)c(O)c2ccccc21 | 150 |
| CCOC(=O)c1ccc2c(c1)c(O)c(C1=NS(=O)(=O)c3ccccc3N1)c(=O)n2CCC(C)C | > 10000 |
| C#CCCn1c(=O)c(C2=NS(=O)(=O)c3ccccc3N2)c(O)c2ccccc21 | 118 |
| CCCn1c(=O)c(C2=Nc3ccccc3S(=O)(=O)N2)c(O)c2ccccc21 | 1550 |
| CC(C)CCn1c(=O)n(C2=Nc3ccccc3S(=O)(=O)N2)c(=O)c2ccccc21 | 9940 |
| O=c1c(C2=NS(=O)(=O)c3ccccc3N2)c(O)c2ccccc2n1CCCO | 2810 |
| CC(C)CCn1c(=O)c(C2=Nc3ccccc3S(=O)(=O)N2)c(O)c2ccc(Br)cc21 | > 10000 |
| O=c1c(C2=Nc3ccccc3S(=O)(=O)N2)c(O)c2ccccc2n1CC1CC1 | 78 |
| CC(C)CCn1c(=O)c(C2=Nc3ccccc3S(=O)(=O)N2)c(O)c2ccc([N+](=O)[O-])cc21 | > 10000 |
| CC(C)CCn1c(=O)c(C2=Nc3ccccc3S(=O)(=O)N2)c(O)c2cc(NC(=O)CN(C)C)ccc21 | 5810 |
| O=c1c(C2=Nc3ccccc3S(=O)(=O)N2)c(O)c2ccccc2n1CC1CCCCC1 | 367 |
| O=c1c(C2=Nc3ccccc3S(=O)(=O)N2)c(O)c2ccccc2n1CCc1cccs1 | > 10000 |
| CN(C)C(=O)Cn1c(=O)c(C2=Nc3ccccc3S(=O)(=O)N2)c(O)c2cc(F)ccc21 | > 10000 |
| O=c1c(C2=Nc3ccccc3S(=O)(=O)N2)c(O)c2ccccc2n1-c1ccccc1 | > 10000 |
